30 compounds from US20220380319A1 (Bial - R&D Investments, S.A., priority 2019, published 2022) can be followed below.

One data set deals with T1, acid ceramidase (Homo sapiens, UniProt Q13510).
T1 construct: Cell lysates overexpressing acid ceramidase were used as the enzyme source; expressed in transfected cells
T1 sequence (Q13510 22-395): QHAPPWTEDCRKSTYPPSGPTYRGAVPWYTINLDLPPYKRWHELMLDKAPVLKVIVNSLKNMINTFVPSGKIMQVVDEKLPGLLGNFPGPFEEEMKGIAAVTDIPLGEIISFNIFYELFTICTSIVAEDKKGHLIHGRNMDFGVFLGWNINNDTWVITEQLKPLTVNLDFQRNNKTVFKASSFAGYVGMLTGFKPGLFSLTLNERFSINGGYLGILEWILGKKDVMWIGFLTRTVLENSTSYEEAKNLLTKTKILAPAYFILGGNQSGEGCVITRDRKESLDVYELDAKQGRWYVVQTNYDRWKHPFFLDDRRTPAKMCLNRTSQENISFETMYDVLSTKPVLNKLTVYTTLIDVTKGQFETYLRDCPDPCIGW
The data set can be described thus: Acid ceramidase inhibition, biochemical fluorescent assay with cell lysates overexpressing acid ceramidase, substrate Rbm14-12. The following applies: substrate Rbm14-12 6.3 μM. On the procedure: The ability of exemplary compounds to inhibit acid ceramidase was measured.
Cell lysates overexpressing acid ceramidase were used as the enzyme source for compound potency determination in a biochemical fluorescent assay. Briefly, compounds were preincubated with 10 μg protein of cell lysates in a dose-response manner for 1 hr at RT in the assay buffer containing 25 mM NaAC and 100 mM NaCl, pH 4.5. The reaction was initiated by the addition of substrate Rbm14-12 at a final concentration of 6.3 μM. The reaction was run at RT for 1 hr before it was stopped by the addition of the stopping buffer containing 20% methanol (v/v), 1 mg/ml NaIO4, 0.1 M glycine, pH 10.6. The samples were incubated with the stopping buffer at RT for 1 hr to allow the fluorescent product to be formed. Finally, the plate was read with SpectraMax i3 plate reader (Molecular Devices) at ex360 nm and em446 nm. Data were collected and used to determine the IC50 values of compounds by curve fitting to the four-parameter inhibition equation.

Data set [1] can be described thus: Compound solubility in water.
Where [2] appears, read: pH 4.5, 1 hr preincubation at RT.

Converted amounts (≈) assume the structure as drawn.

The term IC50 denotes the concentration needed to halve the response being measured. A low value points to greater potency in that assay. A word on the solubility: it is the dissolved amount per volume that the medium holds. Read a high solubility as a readily soluble substance. `CN1CCN(C2CN(c3cccc4c3ncn4C(=O)NCCC3CCC(F)(F)C3)C2)CC1` (stereo not drawn) [Example 318, N-(2-(3,3-Difluorocyclopentyl)ethyl)-4-(3-(4-methylpiperazin-1-yl)azetidin-1-yl)-1H-benzo[d]imidazole-1-carboxamide]: at acid ceramidase (pH 4.5), the IC50 lay within 0.2 to 1 µM. In data set [1], this compound displayed a solubility of 0.04 mg/mL (≈ 89.6 µM).
For `COc1c(N2CCOCC2)ccc2c1ncn2C(=O)NCCc1ccccc1` [Example 40, 4-Methoxy-5-morpholino-N-phenethyl-1H-benzo[d]imidazole-1-carboxamide], on acid ceramidase (setting [2]), the IC50 was less than 0.2 µM. The same compound showed a solubility in data set [1] of 0.0105 mg/mL (≈ 27.6 µM).
Compound `CN1CCN(c2cccc3c2ncn3C(=O)NCCOc2ccccc2)CC1CC#N` (stereo not drawn) [Example 317, 4-(3-(Cyanomethyl)-4-methylpiperazin-1-yl)-N-(2-phenoxyethyl)-1H-benzo[d]imidazole-1-carboxamide] gave an IC50 against acid ceramidase (pH 4.5) of less than 0.2 µM. The compound further came in with a solubility in data set [1] of 0.026 mg/mL (≈ 62.1 µM).
Consider `CC(C)Oc1nc2ccccc2n1C(=O)NCCc1ccccc1` [Example 35, 2-iso-Propoxy-N-phenethyl-1H-benzo[d]imidazole-1-carboxamide], for which, at acid ceramidase (setting [2]), the IC50 was less than 0.2 µM. Besides, in data set [1], the solubility worked out at 0.0007 mg/mL (≈ 2.16 µM).
The compound `N#Cc1cccc2c1ncn2C(=O)NCCCCc1ccccc1` [Example 130, 4-Cyano-N-(4-phenylbutyl)-1H-benzo[d]imidazole-1-carboxamide] came in with an IC50 against acid ceramidase (setting [2]) of less than 0.2 µM. The compound further came in with a solubility in data set [1] of 0.0013 mg/mL (≈ 4.08 µM).
Turning to `CN1CCN(c2cccc3c2ncn3C(=O)NCc2ccn3cccc3c2)CC1` [Example 347, N-(Indolizin-7-ylmethyl)-4-(4-methylpiperazin-1-yl)-1H-benzo[d]imidazole-1-carboxamide], the IC50 against acid ceramidase (setting [2]) was less than 0.2 µM. For the same compound, the concentration in solution in data set [1] (solubility) was 0.025 mg/mL (≈ 64.4 µM).
In the same order, the values of `O=C(NCCCc1ccccc1)n1cnc2c(N3CCOCC3)cccc21` [Example 142, 4-Morpholino-N-(3-phenylpropyl)-1H-benzo[d]imidazole-1-carboxamide] are less than 0.2 µM and 0.0014 mg/mL (≈ 3.84 µM).
The compound `CC(C)CCNC(=O)n1c(=O)n(C)c2ncc(-c3cccnc3)cc21` [Example 110, N-iso-Pentyl-3-methyl-2-oxo-6-(pyridin-3-yl)-2,3-dihydro-1H-imidazo[4,5-b]pyridine-1-carboxamide] had an IC50 on acid ceramidase (setting [2]) greater than 1 µM. This compound also showed a solubility in data set [1] of 0.018 mg/mL (≈ 53 µM).
`CN1CCC(c2c(C(F)(F)F)ccc3c2ncn3C(=O)NCCc2ccccc2)CC1` [Example 55, 4-(1-Methylpiperidin-4-yl)-N-phenethyl-5-(trifluoromethyl)-1H-benzo[d]imidazole-1-carboxamide] displayed an IC50 against acid ceramidase (setting [2]) of less than 0.2 µM. This compound showed a solubility in data set [1] of 0.013 mg/mL (≈ 30.2 µM).
The compound `O=C(NCCc1ccccc1)n1cnc2ccc(N3CCOCC3)cc21` [Example 14b, 6-Morpholino-N-phenethyl-1H-benzo[d]imidazole-1-carboxamide] had an IC50 at acid ceramidase (setting [2]) of less than 0.2 µM. Also, in data set [1], the solubility turned out to be 0.0312 mg/mL (≈ 89 µM).
In the same order, the values of `CCCCNC(=O)n1c(OC)nc2ccc(-c3cncnc3)nc21` [Example 85a, N-Butyl-2-methoxy-5-(pyrimidin-5-yl)-3H-imidazo[4,5-b]pyridine-3-carboxamide] are less than 0.2 µM and 0.04 mg/mL (≈ 123 µM).
In the same order, the values of `O=C(NCCc1ccccc1)n1cnc2cc(C(F)(F)F)ccc21` [Example 26a, N-Phenethyl-5-(trifluoromethyl)-1H-benzo[d]imidazole-1-carboxamide] are less than 0.2 µM and 0.0005 mg/mL (≈ 1.5 µM).
In the case of `CC(C)CNC(=O)n1cnc2cc(C(F)(F)F)c(-c3cncnc3)cc21` [Example 77b, N-iso-butyl-6-(pyrimidin-5-yl)-5-(trifluoromethyl)-1H-benzo[d]imidazole-1-carboxamide], on acid ceramidase (setting [2]), the IC50 was less than 0.2 µM. For the same compound, the solubility in data set [1] was determined as 0.0074 mg/mL (≈ 20.4 µM).
Take `O=C(NCCCc1ccccc1)n1cnc2c(N3CCC4(CC3)COC4)cccc21` [Example 216, N-(3-Phenylpropyl)-4-(2-oxa-7-azaspiro[3.5]nonan-7-yl)-1H-benzo[d]imidazole-1-carboxamide]: the concentration for half-maximal inhibition (IC50) at acid ceramidase (pH 4.5) is less than 0.2 µM. Further, in data set [1], the solubility stood at 0.0025 mg/mL (≈ 6.18 µM).
`CC(C)C#CCNC(=O)n1cnc2c(N3CCN(C4COC4)CC3)cccc21` [Example 307, N-(4-Methylpent-2-yn-1-yl)-4-(4-(oxetan-3-yl)-piperazin-1-yl)-1H-benzo[d]imidazole-1-carboxamide]: at acid ceramidase (pH 4.5), the IC50 was less than 0.2 µM. In data set [1], this compound yielded a solubility of 0.02 mg/mL (≈ 52.4 µM).
Turning to `COc1nc2cc(C3CCN(C)CC3)ccc2n1C(=O)NCCCc1ccccc1` [Example 195a, 2-Methoxy-5-(1-methylpiperidin-4-yl)-N-(3-phenylpropyl)-1H-benzo[d]imidazole-1-carboxamide], the IC50 on acid ceramidase (pH 4.5) is greater than 1 µM. In data set [1], the solubility stood at 0.043 mg/mL (≈ 106 µM).
Compound `CN1CCN(c2cccc3c2ncn3C(=O)NCCCc2ccccc2)CC1CF` (stereo not drawn) [Example 277, 4-(3-(Fluoromethyl)-4-methylpiperazin-1-yl)-N-(3-phenylpropyl)-1H-benzo[d]imidazole-1-carboxamide] came in with an IC50 on acid ceramidase (pH 4.5) of less than 0.2 µM. In data set [1], this compound showed a solubility of 0.018 mg/mL (≈ 44 µM).
On acid ceramidase (pH 4.5), `COc1nc2cc(N3CCN(C4CN(C)C4)CC3)c(F)cc2n1C(=O)NCC#CC(C)C` [Example 320a, 6-Fluoro-2-methoxy-5-(4-(1-methylazetidin-3-yl)piperazin-1-yl)-N-(4-methylpent-2-yn-1-yl)-1H-benzo[d]imidazole-1-carboxamide] gave an IC50 greater than 1 µM. This compound also yielded a solubility in data set [1] of 0.033 mg/mL (≈ 74.6 µM).
At acid ceramidase (pH 4.5), `CN1CC2CCC1CN2c1cccc2c1ncn2C(=O)NCCCc1ccccc1` (stereo not drawn) [Example 247, 4-(5-Methyl-2,5-diazabicyclo[2.2.2]octan-2-yl)-N-(3-phenylpropyl)-1H-benzo[d]imidazole-1-carboxamide] came in with an IC50 of less than 0.2 µM. Moreover, the solubility in data set [1] turned out to be 0.028 mg/mL (≈ 69.4 µM).
On acid ceramidase (pH 4.5), `CN1CC(N2CCN(c3cccc4c3ncn4C(=O)NCCCc3ccccc3)CC2)C1` [Example 251, 4-(4-(1-Methylazetidin-3-yl)piperazin-1-yl)-N-(3-phenylpropyl)-1H-benzo[d]imidazole-1-carboxamide] returned a half-inhibitory concentration (IC50) of less than 0.2 µM. This compound also showed a solubility in data set [1] of 0.035 mg/mL (≈ 80.9 µM).
As for `CC(C)CCNC(=O)n1cnc2c(N3CC4(COC4)C3)cccc21` [Example 176], at acid ceramidase (pH 4.5), the IC50 was in the range of 0.2 to 1 µM. The compound further registered a solubility in data set [1] of 0.022 mg/mL (≈ 67 µM).
In turn, `CC(C)CCNC(=O)n1cnc2c(N3CCN4C(=O)CCC4C3)cccc21` (stereo not drawn) [Example 209, N-iso-Pentyl-4-(6-oxohexahydropyrrolo[1,2-a]pyrazin-2(1H)-yl)-1H-benzo[d]imidazole-1-carboxamide] gave an IC50 on acid ceramidase (pH 4.5) of 0.2 to 1 µM. In data set [1], this compound showed a solubility of 0.024 mg/mL (≈ 65 µM).
Consider `CCCCCNC(=O)n1cnc2ccccc21` [Example 23, N-Pentyl-1H-benzo[d]imidazole-1-carboxamide], for which the half-inhibitory concentration (IC50) at acid ceramidase (setting [2]) was less than 0.2 µM. In data set [1], the solubility is 0.0133 mg/mL (≈ 57.5 µM).
The like results for `CN1CCN(c2ccc3ncn(C(=O)NCCc4ccccc4)c3c2)CC1` [Example 15b, 6-(4-Methylpiperazin-1-yl)-N-phenethyl-1H-benzo[d]imidazole-1-carboxamide] were, in that order, less than 0.2 µM and 0.0229 mg/mL (≈ 63 µM).
At acid ceramidase (setting [2]), `CC(C)CCNC(=O)n1cnc2c(N3CCOCC3)cccc21` [Example 118, N-iso-Pentyl-4-morpholino-1H-benzo[d]imidazole-1-carboxamide] registered a 50% inhibitory concentration (IC50) of 0.2 to 1 µM. The compound further came in with a solubility in data set [1] of 0.021 mg/mL (≈ 66.4 µM).
In turn, `CN1CCCN(c2cccc3c2ncn3C(=O)NCCCc2ccccc2)CC1` [Example 269, 4-(4-Methyl-1,4-diazepan-1-yl)-N-(3-phenylpropyl)-1H-benzo[a]imidazole-1-carboxamide] yielded an IC50 on acid ceramidase (pH 4.5) of less than 0.2 µM. In data set [1], this compound gave a solubility of 0.021 mg/mL (≈ 53.6 µM).
Regarding `COCCOc1nc2ccccc2n1C(=O)NCCCc1ccccc1` [Example 191, 2-(2-Methoxyethoxy)-N-(3-phenylpropyl)-1H-benzo[d]imidazole-1-carboxamide], the IC50 at acid ceramidase (pH 4.5) was less than 0.2 µM. In data set [1], the solubility amounted to 0.004 mg/mL (≈ 11.3 µM).
For `COc1nc2ccc(N3CCOCC3)cc2n1C(=O)NCCCCc1ccccc1` [Example 133a, 2-Methoxy-6-morpholino-N-(4-phenylbutyl)-1H-benzo[d]imidazole-1-carboxamide], at acid ceramidase (setting [2]), the IC50 was less than 0.2 µM. The compound further had a solubility in data set [1] of 0.001 mg/mL (≈ 2.45 µM).
In turn, `Cn1c(=O)n(C(=O)NCCc2ccccc2)c2cc(-c3cncnc3)ccc21` [Example 32a, 3-Methyl-2-oxo-N-phenethyl-6-(pyrimidin-5-yl)-2,3-dihydro-1H-benzo[d]imidazole-1-carboxamide] came in with a half-inhibitory concentration (IC50) against acid ceramidase (setting [2]) greater than 1 µM. In data set [1], this compound showed a solubility of 0.0009 mg/mL (≈ 2.41 µM).
In the case of `CC(C)C(=O)N1CCN(c2cccc3c2ncn3C(=O)NCCCC2(C(F)(F)F)CC2)CC1` [Example 234, 4-(4-iso-Butyrylpiperazin-1-yl)-N-(3-(1-(trifluoromethyl)cyclopropyl)propyl)-1H-benzo[d]imidazole-1-carboxamide], the IC50 against acid ceramidase (pH 4.5) is less than 0.2 µM. The same compound had a solubility in data set [1] of 0.001 mg/mL (≈ 2.15 µM).
